Measured values published in publication PMC7792944, “Pharmacological Characterization of µ-Opioid Receptor Agonists with Biased G Protein or β-Arrestin Signaling, and Computational Study of Conformational Changes during Receptor Activation” (Molecules, 2020).
“And” between values parts separate entries of the source, which are not always exact repeats. Equal values may be shown once. Bridge positions count the residues as written; N and C are the ends. Square brackets hold non-standard residues; d marks the D form. Ends that are not written are not given here. Peptide text beside a SMILES is read from it. Phe(4-CF3) = N[C@@H](Cc1ccc(C(F)(F)F)cc1)C(=O)O; Dmt = Cc1cc(O)cc(C)c1C[C@H](N)C(=O)O

How the values were obtained:
human recombinant DOP = system: human recombinant DOP; parameters: method as in ref [44], [45] (C-33); conditions: ref [44], [45] (C-33), cited from earlier work; for DOP pEC50 (CL95%): calcium signaling via chimeric G proteins; for DOP α±SEM: maximal effect, calcium signaling
human recombinant KOP = system: human recombinant KOP; parameters: method as in ref [44], [45] (C-33); conditions: ref [44], [45] (C-33), cited from earlier work; for KOP α±SEM: maximal effect, calcium signaling; for KOP pEC50 (CL95%): calcium signaling via chimeric G proteins
human recombinant MOP = conditions: cited from earlier work; for MOP pEC50 (CL95%): calcium signaling via chimeric G proteins, ref [44] (EM-2, DPDPE, Dyn A, F-81); for MOP pEC50 (CL95%) / MOP α±SEM: [45] (C-33); for MOP α±SEM: maximal effect, calcium signaling, ref [44]
DPP IV = system: DPP IV; parameters: method as in ref [44] (F-81), [45] (C-33); conditions: ref [44] (F-81), [45] (C-33); cited from earlier work
MOP/β-arrestin 2 = conditions: cited from earlier work; for MOP/β-arrestin 2 pEC50 (CL95%): ref [44] (EM-2, F-81)
DOP = conditions: read-out: Ki DOP; [3H]deltorphin-2, human opioid receptor membranes; ref [44] (F-81), [45] (C-33); cited from earlier work
[1] = parameters: method as in ref [44] (F-81), [45] (C-33); conditions: ref [44] (F-81), [45] (C-33); cited from earlier work
KOP = target: KOP; parameters: method as in ref [44] (F-81), [45] (C-33); conditions: [3H]U-69593, human opioid receptor membranes; ref [44] (F-81), [45] (C-33); cited from earlier work
MOP [2] = target: MOP; parameters: method as in ref [44] (F-81), [45] (C-33); conditions: [3H]DAMGO, human opioid receptor membranes; ref [44] (F-81), [45] (C-33); cited from earlier work
MOP/G-protein = conditions: BRET, [45] (C-33), cited from earlier work; for MOP/G-protein α±SEM: maximal effect, ref [44]; for MOP/G-protein pEC50 (CL95%): ref [44] (EM-2, F-81)
[3] = target: T1, CHO-K1 OPRM1 (μ-opioid receptor (MOP))/β-arrestin 2 (Homo sapiens, UniProt P35372); experiment: PathHunter enzyme complementation assay, β-arrestin 2 recruitment; assay type: cell-based; conditions: for EC50 / %Stim: CHO-K1 OPRM1 β-arrestin 2 cell line; for EC50: mean ± SEM, n = 5; for %Stim: normalized to the maximum stimulation caused by EM-1 (100%)
T1 construct: host or cells: CHO-K1 (CHO-K1 OPRM1 β-arrestin cell line)
Procedure: Since in most studies reported in the introduction, β-arrestin 2 was used, for easy comparison we decided to characterize this isoform, despite being the minority as compared to β-arrestin 1 in most cells, including neurons. The use of β-arrestin 2 is supported by its similarity in opioid receptor binding with β-arrestin 1 [37, 50].
Measurement of β-arrestin 2 recruitment. β-arrestin 2 recruitment at MOP was measured using the DiscoveRxPathHunter® β-arrestin kit (DiscoveRx, Fremont, CA, USA) according to manufacturer’s recommendations and previously published procedure. CHO cells were engineered to co-express the ProLink™ (PK) tagged GPCR (GPCR-PK) and the enzyme acceptor (EA) tagged β-arrestin 2 (β-arrestin-EA) (CHO-K1 OPRM1 β-arrestin cell line). Activation of the GPCR-PK induces β-arrestin-EA recruitment, forcing complementation of the two β-galactosidase enzyme fragments (EA and PK). The resulting functional enzyme hydrolyzes substrate to generate a chemiluminescent signal which was measured by luminometry. Briefly, 20 μL of PathHunter cells as taken from the kit were seeded in each well and incubated overnight at 37 °C. […] Detection Reagent Working Solution (12 μL) was added and incubation was continued for 60 min at rt. Chemiluminescent signal was read using a Viewlux imaging plate reader (PerkinElmer, Cambridge, MA, USA).

human MOP = target: T2, human MOP (Homo sapiens, UniProt P35372); experiment: [35S]GTPγS binding assay (G-protein activation) in CHO-hMOP cell membranes; assay type: biochemical; conditions: for %Stim: efficacy normalized to the maximum stimulation caused by EM-1
T2 construct: originator Prof L. Toll, SRI International; host or cells: CHO (CHO-hMOP), membranes
Procedure: Herein, for the first time the biased agonism of F-81 and C-33 is analyzed by [^35S]GTPγS binding assay (Table 1) and PathHunter enzyme complementation assay (Table 2). [^35S]GTPγS binding assay, which characterizes ligand-driven G protein activation, was performed in CHO cells stably expressing the human MOP [46, 47].
[^35S]GTPγS binding assay. CHO cells stably expressing the human MOP receptor (in brief, CHO-hMOP cells, provided by Prof G. Calo, University of Ferrara; originator was Prof L. Toll, SRI International, Menlo Park, CA, USA) were grown in Hams F12 containing streptomycin (100 μg/mL), fungizone 2.5 μg/mL), penicillin (100 IU/mL) and 10% fetal bovine serum (FBS). Stock medium containing G418 (200 μg/mL) was used to maintain CHO-hMOP expression. Experiments were performed according to the literature. Cell membranes (5–10 µg) were incubated at 30 °C with 0.05 nM [^35S]GTPγS (PekinElmer, 549 Albany St, Boston, MA 02118, US), 10 µM GDP and various concentrations of a tested peptide in the final volume of 1 mL, for 60 min. Non-specific binding was determined using 10 µM GTPγS, and the basal binding was determined in the absence of a tested peptide. Incubations were terminated by rapid filtration through the GF/B Whatman glass fiber strips and the bound radioactivity was measured in a liquid scintillation counter. Five independent experiments were carried out. The data were analyzed by a nonlinear least square regression analysis computer program Graph Pad PRISM 5.0 (GraphPad Software Inc., San Diego, CA, USA).

MOP [4] = system: MOP; parameters: method as in PMID 31351108; conditions: Gαi2 and GαoA; ref [43]; cited from earlier work

T1 sequence (P35372 whole entry): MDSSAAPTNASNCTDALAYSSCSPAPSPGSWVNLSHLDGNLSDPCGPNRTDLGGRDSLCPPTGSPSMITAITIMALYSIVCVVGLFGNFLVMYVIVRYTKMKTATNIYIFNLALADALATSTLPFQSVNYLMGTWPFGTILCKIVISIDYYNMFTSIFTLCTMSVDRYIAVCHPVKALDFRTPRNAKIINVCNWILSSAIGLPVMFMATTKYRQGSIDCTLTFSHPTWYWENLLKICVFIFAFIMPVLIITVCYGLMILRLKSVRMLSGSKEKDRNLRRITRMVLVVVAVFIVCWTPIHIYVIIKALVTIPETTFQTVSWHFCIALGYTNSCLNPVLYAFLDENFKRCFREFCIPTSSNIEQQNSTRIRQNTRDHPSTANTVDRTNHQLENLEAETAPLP
T1 sequence (P32121 whole entry partner): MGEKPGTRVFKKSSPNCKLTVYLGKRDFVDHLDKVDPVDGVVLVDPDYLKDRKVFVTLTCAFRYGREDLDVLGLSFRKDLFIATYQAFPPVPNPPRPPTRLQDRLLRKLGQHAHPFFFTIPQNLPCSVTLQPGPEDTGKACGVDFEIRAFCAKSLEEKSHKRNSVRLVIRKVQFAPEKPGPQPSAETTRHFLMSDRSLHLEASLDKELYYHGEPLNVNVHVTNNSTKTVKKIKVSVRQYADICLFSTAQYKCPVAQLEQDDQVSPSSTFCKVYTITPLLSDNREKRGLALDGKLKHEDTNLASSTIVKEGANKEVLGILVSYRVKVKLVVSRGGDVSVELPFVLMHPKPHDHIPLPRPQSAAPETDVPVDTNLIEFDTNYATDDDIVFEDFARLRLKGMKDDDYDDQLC
T2 sequence (P35372 whole entry): as the sequence (P35372 whole entry) above

Question: For “Dyn A: reference agonist in calcium mobilization assay (KOP)”, which “DOP pEC50 (CL95%)” value (human recombinant DOP) is on record?
Answer: 7.73

Question: What about the “DOP α±SEM” value (human recombinant DOP) of the same compound?
Answer: 0.99±0.04

Question: And the “KOP α±SEM” value (human recombinant KOP)?
Answer: 1.00

Question: What about the “MOP pEC50 (CL95%)” value (human recombinant MOP) of the same compound?
Answer: 6.67

Question: And the “MOP α±SEM” value (human recombinant MOP)?
Answer: 0.83±0.10

Question: Which “Enzymatic stability Area [%] 120 min DPP IV” value (DPP IV) does the source give for “Tyr-Pro-Phe-Phe-NH2 (YPFF-NH2) [EM-2, reference compound]” here?
Answer: 1.9±0.03%

Question: And the “DOP pEC50 (CL95%)” value (human recombinant DOP)?
Answer: inactive

Question: And the “MOP/β-arrestin 2 α±SEM” value (MOP/β-arrestin 2; BRET, maximal effect, ref [44], [45] (C-33))?
Answer: 1.00

Question: And the “MOP/β-arrestin 2 pEC50 (CL95%)” value (MOP/β-arrestin 2; BRET, [45] (C-33))?
Answer: 7.20

Question: What about the “bias factor (CL95%)” value (MOP/β-arrestin 2; calculated by using EM-2 as a standard unbiased ligand, ref [44], [45] (C-33)) of the same compound?
Answer: 0.00

Question: And the Ki (DOP)?
Answer: > 1000 nM

Question: And the “KOP pEC50 (CL95%)” value (human recombinant KOP)?
Answer: inactive

Question: And the “Enzymatic stability Area [%] 120 min Homogenate” value [1]?
Answer: 6.5±0.15%

Question: What about the Ki (KOP) of the same compound?
Answer: > 1000 nM

Question: What about the “MOP pEC50 (CL95%)” value (human recombinant MOP) of the same compound?
Answer: 7.83

Question: And the “MOP α±SEM” value (human recombinant MOP)?
Answer: 1.00

Question: What about the Ki (MOP [2]) of the same compound?
Answer: 2.5 ± 0.05 nM

Question: What about the “MOP/G-protein α±SEM” value (MOP/G-protein) of the same compound?
Answer: 1.00

Question: And the “MOP/G-protein pEC50 (CL95%)” value (MOP/G-protein)?
Answer: 7.32

Question: What does the source list for Cc1cc(O)cc(C)c1C[C@H](N)C(=O)N[C@@H]1CCCCNC(=O)C[C@@H](C(N)=O)NC(=O)[C@H](Cc2ccc(C(F)(F)F)cc2)NC(=O)[C@H](Cc2ccccc2)NC1=O [F-81, Dmt-c[D-Lys-Phe-p-CF3-Phe-Asp]NH2] (H-[Dmt][dK]F[Phe(4-CF3)]D-NH2; lactam 2-5)?
Answer: EC50 [3]: 0.398 nM; %Stim [3]: 41% and 41 ± 15 %; agonist behaviour, β-arrestin 2 recruitment (in words) ([3]; PathHunter, compared to EM-1): low efficacy partial agonist; EC50 (human MOP): 0.112 nM; Class (human MOP; CHO-hMOP, [35S]GTPγS binding): high efficacy partial agonist; %Stim (human MOP; CHO-hMOP): 68 ± 1 %; Enzymatic stability Area [%] 120 min DPP IV (DPP IV): 92.1±3.27%; DOP pEC50 (CL95%) (human recombinant DOP): inactive; MOP/β-arrestin 2 pEC50 (CL95%) (MOP/β-arrestin 2; BRET, [45] (C-33)): inactive; receptor/β-arrestin interaction (in words) (MOP/β-arrestin 2; BRET, ref [44]): did not promote receptor/β-arrestin interaction; Ki (DOP): > 1000 nM; KOP pEC50 (CL95%) (human recombinant KOP): 8.22; KOP α±SEM (human recombinant KOP): 0.63±0.04; Enzymatic stability Area [%] 120 min Homogenate [1]: 90.7±3.14%; Ki (KOP): 31.1 nM; higher potency than the reference EM-2 (human recombinant MOP; calcium mobilization assay, MOP, ref [44],[45]): 2 fold; MOP pEC50 (CL95%) (human recombinant MOP): 8.19; MOP α±SEM (human recombinant MOP): 0.8±0.05; Ki (MOP [2]): 2.4 nM; MOP/G-protein α±SEM (MOP/G-protein): 0.82±0.04; MOP/G-protein pEC50 (CL95%) (MOP/G-protein): 8.28

Question: With DPDPE as the compound, how does the “DOP pEC50 (CL95%)” value (human recombinant DOP) read?
Answer: 7.33

Question: What about the “DOP α±SEM” value (human recombinant DOP) of the same compound?
Answer: 1.00

Question: And the “KOP pEC50 (CL95%)” value (human recombinant KOP)?
Answer: inactive

Question: What about the “MOP pEC50 (CL95%)” value (human recombinant MOP) of the same compound?
Answer: inactive

Question: Which “G protein activation, less potent compared to its (R)-isomer” value (MOP [4]) does the source give for COc1ccsc1CNCC[C@]1(c2ccccn2)CCOC2(CCCC2)C1 [(S)-TRV130] here?
Answer: 90 fold

Question: With Cc1cc(O)cc(C)c1C[C@H](N)C(=O)N[C@@H]1CCCCNC(=O)C[C@@H](C(N)=O)NC(=O)[C@H](Cc2ccccc2)NC1=O [C-33, Dmt-c[D-Lys-Phe-Asp]NH2] (H-[Dmt][dK]FD-NH2; lactam 2-4) as the compound, how does the EC50 [3] read?
Answer: 2.51 nM

Question: And the “%Stim” value [3]?
Answer: 156% and 156 ± 3 %

Question: And the EC50 (human MOP)?
Answer: 0.0794 nM

Question: And the “%Stim” value (human MOP; CHO-hMOP)?
Answer: 88 ± 3%

Question: And the “Enzymatic stability Area [%] 120 min DPP IV” value (DPP IV)?
Answer: 91.1±4.21%

Question: What about the “Enzymatic stability Area [%] 120 min Homogenate” value [1] of the same compound?
Answer: 89±2.27%
